According to US8907089B2, “Fused heterocyclic ring derivative and use thereof” (Takeda Pharmaceutical Company Limited, priority 2009, dated 2014):

Tested on: mouse medulloblastoma (Patched 1(+/-), p53(-/-)) subcutaneously transplanted into nude mouse
Test: In vivo anti-tumor test, mouse medulloblastoma allogeneic transplantation model
Conditions: 1 mg/kg, orally twice a day for 2 weeks, 0.5% methylcellulose suspension; nude mouse with subcutaneous medulloblastoma; at the end of the test; p < 0.025 (Dunnett's test)
Procedure: According to the description in Sasaki, K. et al., (2006) Cancer Res. 66: 4215-4222, an anti-tumor effect of a compound was evaluated using a mouse medulloblastoma allogeneic transplantation model. To be precise, Patched 1 gene mutant mouse (lineage name: Ptch1tm1Mps/J) was purchased from The Jackson Laboratory and p53 gene mutant mouse (lineage name: P53N4-M, Nomenclature: B6.129-Trp53tm/BrdN4) was purchased from Taconic, and a mouse of Patched 1(+/−), p53(−/−) phenotype was prepared by mating. […]
An anti-tumor test was performed using a tumor passaged by subcutaneous transplantation. […] The tumor diameter after transplantation was measured and, when the tumor size reached 150-250 mm^3, the anti-tumor test was started using 5 mice per group.
The test compound was prepared to achieve a dose of 1 mg/kg with a 0.5% methylcellulose (Shin-Etsu Chemical Co. Ltd., Cat. No. SM-100) suspension, and orally administered twice a day for 2 weeks. The tumor size was calculated based on the longer diameter and shorter diameter of the tumor measured with an electron vernier caliper. After the start of the test, the tumor size was measured every 2 or 3 days and the growth rate of the tumor size was calculated. […]

SMILES	T/C (%) growth rate of the tumor size [%]
CCc1cc2c(c(OCC(F)(F)F)c(C(=O)NC3CCN(C(=O)CO)CC3)n2C)c(=O)n1-c1ccc(F)cc1 [Example 5, 6-ethyl-5-(4-fluorophenyl)-N-[1-(hydroxyacetyl)piperidin-4-yl]-1-methyl-4-oxo-3-(2,2,2-trifluoroethoxy)-4,5-dihydro-1H-pyrrolo[3,2-c]pyridine-2-carboxamide]	42
CCc1cc2c(c(OC(C)C)c(C(=O)NC3CCN(C(=O)CO)CC3)n2C)c(=O)n1-c1ccc(F)cc1 [Example 7, 6-ethyl-5-(4-fluorophenyl)-N-[1-(hydroxyacetyl)piperidin-4-yl]-1-methyl-3-(1-methylethoxy)-4-oxo-4,5-dihydro-1H-pyrrolo[3,2-c]pyridine-2-carboxamide]	40
